Assay results published in paper PMC4184702 (Pharmacology Research & Perspectives, 2014).

Experiments:
strain TA1535 = experiment: Ames test, strain TA1535; type: cell-based
[1] = target: T1, DAT: Dopamine Transporter (Homo sapiens, UniProt Q01959); experiment: PDSP primary binding, DAT; conditions: n = 4, read-out: Inhibition (primary binding competition efficacy), DAT
T1 construct: purchased NIMH Psychoactive Drug Screening Program (PDSP)
Protocol: (§1) For experimental details, please refer to the Psychoactive Drug Screening Program (PDSP) web site http://pdsp.med.unc.edu/.
(§2) ^a The default concentration for primary binding experiments is 10 µM (n = 4). ^b Negative inhibition represents a stimulation of binding. ^c BZPR: Benzodiazepine Receptors (rat brain site). ^d DOR: Delta Opioid Receptor; KOR: Kappa Opioid Receptor; MOR: Mu Opioid Receptor. ^e DAT: Dopamine Transporter; NET: Norepinephrine Transporter; SERT: Serotonin Transporter. ^f NMDA: N-methyl-D-aspartate receptor.

Oxytocin = target: T2, Oxytocin (Homo sapiens, UniProt P30559); experiment: PDSP primary binding, Oxytocin; conditions: n = 4, read-out: Inhibition (primary binding competition efficacy), Oxytocin
T2 construct: purchased NIMH Psychoactive Drug Screening Program (PDSP)
T2 sequence (P30559 whole entry): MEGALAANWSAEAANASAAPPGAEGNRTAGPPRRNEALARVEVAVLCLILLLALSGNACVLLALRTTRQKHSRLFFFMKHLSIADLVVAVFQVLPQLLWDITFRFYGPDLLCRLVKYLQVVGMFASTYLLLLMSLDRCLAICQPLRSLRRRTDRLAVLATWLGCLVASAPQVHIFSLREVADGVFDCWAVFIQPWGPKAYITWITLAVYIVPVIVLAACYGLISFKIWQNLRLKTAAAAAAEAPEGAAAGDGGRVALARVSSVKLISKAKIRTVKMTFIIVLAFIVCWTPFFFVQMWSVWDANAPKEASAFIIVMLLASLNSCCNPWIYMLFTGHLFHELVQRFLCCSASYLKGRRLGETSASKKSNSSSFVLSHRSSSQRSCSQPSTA
Protocol: as §1, §2

[2] = target: T3, KOR: Kappa Opioid Receptor (Homo sapiens, UniProt P41145); experiment: PDSP primary binding, KOR; conditions: n = 4, read-out: Inhibition (primary binding competition efficacy), KOR
T3 construct: purchased NIMH Psychoactive Drug Screening Program (PDSP)
T3 sequence (P41145 whole entry): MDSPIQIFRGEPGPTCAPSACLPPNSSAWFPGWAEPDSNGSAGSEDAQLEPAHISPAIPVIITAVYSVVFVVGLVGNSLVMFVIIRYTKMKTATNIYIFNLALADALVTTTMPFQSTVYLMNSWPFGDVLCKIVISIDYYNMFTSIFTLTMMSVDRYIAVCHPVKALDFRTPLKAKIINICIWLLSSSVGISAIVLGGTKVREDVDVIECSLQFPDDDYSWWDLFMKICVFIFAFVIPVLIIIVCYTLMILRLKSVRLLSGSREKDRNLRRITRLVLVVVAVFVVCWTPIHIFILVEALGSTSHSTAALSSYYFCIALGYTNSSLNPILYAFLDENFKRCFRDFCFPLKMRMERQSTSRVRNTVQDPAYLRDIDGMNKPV
Protocol: as §1, §2

[3] = parameters: method as in Yuan et al. [2013]; conditions: ref Yuan et al. [2013]; cited from earlier work
[4] = Bacterial cytotoxicity, strain TA1535; type: cell-based; conditions: Salmonella typhimurium, bacterial tester strain TA1535 without S9, read-out: Cytotoxicity (% of Control Values)
Text: (§3) Supplement prp20002-e00026-sd1.doc, table 4: Table 4.

[5] = target: T4, NET: Norepinephrine Transporter (Homo sapiens, UniProt P23975); experiment: PDSP primary binding, NET; conditions: n = 4, read-out: Inhibition (primary binding competition efficacy), NET
T4 construct: purchased NIMH Psychoactive Drug Screening Program (PDSP)
T4 sequence (P23975 whole entry): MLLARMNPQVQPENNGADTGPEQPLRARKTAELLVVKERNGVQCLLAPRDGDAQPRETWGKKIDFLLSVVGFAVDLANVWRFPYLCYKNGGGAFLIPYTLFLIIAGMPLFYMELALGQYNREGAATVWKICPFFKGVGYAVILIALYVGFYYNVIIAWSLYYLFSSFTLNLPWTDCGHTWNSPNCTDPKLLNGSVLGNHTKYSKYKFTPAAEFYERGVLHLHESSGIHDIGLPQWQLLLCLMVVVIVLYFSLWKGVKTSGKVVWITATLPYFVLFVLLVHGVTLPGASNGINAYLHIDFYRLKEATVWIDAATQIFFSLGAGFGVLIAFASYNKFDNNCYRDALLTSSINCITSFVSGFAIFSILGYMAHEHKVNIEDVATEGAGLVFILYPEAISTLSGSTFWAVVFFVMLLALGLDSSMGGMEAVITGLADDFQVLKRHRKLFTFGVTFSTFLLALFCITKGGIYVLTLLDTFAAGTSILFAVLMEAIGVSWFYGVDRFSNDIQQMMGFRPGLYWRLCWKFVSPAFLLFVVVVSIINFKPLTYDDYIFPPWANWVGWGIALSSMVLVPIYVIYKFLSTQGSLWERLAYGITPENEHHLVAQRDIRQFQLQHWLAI
Protocol: as §1, §2

human α7-nAChR = target: T5, human α7-nAChR (Homo sapiens, UniProt P36544); experiment: Two-electrode voltage-clamp recording in Xenopus oocytes, α7; type: cell-based
T5 construct: expressed in transfected cells; host or cells: Xenopus oocytes (cRNA injection)
T5 sequence (P36544 23-502): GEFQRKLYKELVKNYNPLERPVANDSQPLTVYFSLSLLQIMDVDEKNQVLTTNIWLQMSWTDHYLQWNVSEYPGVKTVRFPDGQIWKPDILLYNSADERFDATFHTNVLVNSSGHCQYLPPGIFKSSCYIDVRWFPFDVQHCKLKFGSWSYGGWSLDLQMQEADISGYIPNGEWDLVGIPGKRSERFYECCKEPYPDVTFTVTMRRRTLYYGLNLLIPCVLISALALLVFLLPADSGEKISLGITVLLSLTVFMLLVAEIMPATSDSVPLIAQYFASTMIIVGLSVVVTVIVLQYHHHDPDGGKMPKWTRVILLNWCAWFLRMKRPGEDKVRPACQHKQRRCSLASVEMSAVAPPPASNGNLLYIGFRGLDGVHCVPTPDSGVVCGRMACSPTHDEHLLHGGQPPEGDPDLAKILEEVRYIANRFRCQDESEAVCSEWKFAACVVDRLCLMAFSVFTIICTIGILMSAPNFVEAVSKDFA
Protocol: Xenopus oocytes were injected with cRNAs encoding human nicotinic receptor subunits (α4:β2 at 1:1 ratio or α7). Three to five days after injection, oocytes were individually placed in a custom made small volume chamber and continuously perfused with oocyte Ringer's solution (OR2; 92.5 mmol/L NaCl, 2.5 mmol/L KCl, 1 mmol/L CaCl2, 1 mmol/L MgCl2, and 5 mmol/L HEPES at pH 7.5). Drugs were delivered to the oocytes through a ValveLink8.2 computer-controlled perfusion system (Automate Scientific, Inc, Berkeley, CA). The chamber was grounded through an agar KCl bridge. The oocytes were voltage-clamped at −70 mV to measure agonist-induced currents using a GeneClamp 500B amplifier (Axon Instruments, Foster City, CA). The current signal was filtered at 20 Hz with the built-in four pole low-pass Bessel filter and digitized at 100 Hz.

M4 muscarinic receptor = target: T6, M4 muscarinic receptor (Homo sapiens, UniProt P08173); experiment: PDSP primary binding, M4; conditions: n = 4, read-out: Inhibition (primary binding competition efficacy), M4
T6 construct: purchased NIMH Psychoactive Drug Screening Program (PDSP)
T6 sequence (P08173 whole entry): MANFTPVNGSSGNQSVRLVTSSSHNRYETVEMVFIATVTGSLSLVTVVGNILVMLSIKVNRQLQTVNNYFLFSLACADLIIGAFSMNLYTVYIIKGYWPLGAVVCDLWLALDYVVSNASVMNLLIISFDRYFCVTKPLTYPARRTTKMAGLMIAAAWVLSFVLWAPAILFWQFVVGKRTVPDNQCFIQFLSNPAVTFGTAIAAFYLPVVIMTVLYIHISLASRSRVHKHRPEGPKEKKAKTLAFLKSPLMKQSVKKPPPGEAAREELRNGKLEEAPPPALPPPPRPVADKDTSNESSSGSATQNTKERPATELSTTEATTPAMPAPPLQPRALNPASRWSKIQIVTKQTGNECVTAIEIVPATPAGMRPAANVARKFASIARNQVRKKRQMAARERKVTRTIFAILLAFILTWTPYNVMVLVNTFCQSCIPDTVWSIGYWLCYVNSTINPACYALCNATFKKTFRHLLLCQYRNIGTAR
Protocol: as §1, §2

CYP2C19 = target: T7, CYP2C19 (Homo sapiens, UniProt P33261); experiment: CYP2C19 inhibition, HLM, omeprazole substrate; type: in vitro ADME; conditions: 1.0E-05 M
T7 construct: from tissue; host or cells: human liver microsomes (HLM)
T7 sequence (P33261 whole entry): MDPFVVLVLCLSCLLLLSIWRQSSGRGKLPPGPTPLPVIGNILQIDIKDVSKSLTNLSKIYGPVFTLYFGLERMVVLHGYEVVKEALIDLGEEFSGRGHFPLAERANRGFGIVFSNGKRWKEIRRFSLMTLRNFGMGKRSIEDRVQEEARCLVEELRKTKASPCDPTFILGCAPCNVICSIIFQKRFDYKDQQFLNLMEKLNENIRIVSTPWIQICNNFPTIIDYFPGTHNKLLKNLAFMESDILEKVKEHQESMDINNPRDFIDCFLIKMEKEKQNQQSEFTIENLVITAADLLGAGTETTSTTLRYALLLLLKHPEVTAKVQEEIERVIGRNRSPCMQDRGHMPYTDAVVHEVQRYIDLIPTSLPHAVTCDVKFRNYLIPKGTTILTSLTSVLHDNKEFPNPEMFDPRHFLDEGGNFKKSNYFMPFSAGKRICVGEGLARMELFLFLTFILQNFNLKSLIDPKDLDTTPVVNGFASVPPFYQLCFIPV
Text: Supplement prp20002-e00026-sd1.doc, table 3: Table 3.

[6] = target: β2-containing nAChRs (α2β2, α3β2, α4β2, and α4β2*); parameters: method as in Yu et al. [2012]; conditions: ref Yu et al. [2012], read-out: Ki values range at β2-containing nAChRs; cited from earlier work
[7] = Plasma and brain levels after NSF (UHPLC-MS-MS); type: in vivo, mouse
Protocol: The chamber floor is covered with bedding (∼0.5″). […] Samples are stored at −80°C until analysis.
Compound LF-3-99 (10 ng/mL, See Fig. S1 for structure) was used as an internal standard.

β2 adrenergic receptor = target: T8, β2 adrenergic receptor (Homo sapiens, UniProt P07550); experiment: PDSP primary binding, β2; conditions: n = 4, read-out: Inhibition (primary binding competition efficacy), β2
T8 construct: purchased NIMH Psychoactive Drug Screening Program (PDSP)
T8 sequence (P07550 whole entry): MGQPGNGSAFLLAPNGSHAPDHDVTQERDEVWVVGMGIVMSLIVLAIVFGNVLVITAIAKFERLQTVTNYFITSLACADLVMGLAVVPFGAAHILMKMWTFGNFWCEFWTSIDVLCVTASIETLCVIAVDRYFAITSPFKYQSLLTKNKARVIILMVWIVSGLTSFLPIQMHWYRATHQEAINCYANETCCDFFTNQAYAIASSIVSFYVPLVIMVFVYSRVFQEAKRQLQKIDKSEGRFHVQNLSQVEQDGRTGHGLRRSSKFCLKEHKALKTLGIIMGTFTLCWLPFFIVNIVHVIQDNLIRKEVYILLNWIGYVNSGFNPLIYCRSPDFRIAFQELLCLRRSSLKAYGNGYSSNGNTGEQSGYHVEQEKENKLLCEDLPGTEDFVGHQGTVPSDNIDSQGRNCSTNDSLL
Protocol: as §1, §2

σ 2 sigma receptor = experiment: PDSP primary binding, σ 2; conditions: 10 µM, n = 4
Protocol: as §1, §2

D1 dopamine receptor = target: T9, D1 dopamine receptor (Homo sapiens, UniProt P21728); experiment: PDSP primary binding, D1; conditions: n = 4, read-out: Inhibition (primary binding competition efficacy), D1
T9 construct: purchased NIMH Psychoactive Drug Screening Program (PDSP)
T9 sequence (P21728 whole entry): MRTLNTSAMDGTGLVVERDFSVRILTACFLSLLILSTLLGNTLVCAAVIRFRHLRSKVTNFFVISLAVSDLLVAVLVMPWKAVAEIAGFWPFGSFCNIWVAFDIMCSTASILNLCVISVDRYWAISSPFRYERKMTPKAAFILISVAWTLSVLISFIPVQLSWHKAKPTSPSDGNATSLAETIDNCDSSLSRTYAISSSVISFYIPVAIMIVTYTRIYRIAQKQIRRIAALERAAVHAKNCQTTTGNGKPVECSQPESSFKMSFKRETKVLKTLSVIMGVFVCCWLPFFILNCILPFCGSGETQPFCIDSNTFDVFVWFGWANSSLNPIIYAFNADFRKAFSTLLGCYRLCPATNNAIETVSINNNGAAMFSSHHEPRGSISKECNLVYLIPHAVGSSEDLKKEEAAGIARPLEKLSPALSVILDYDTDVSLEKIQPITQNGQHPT
Protocol: as §1, §2

[8] = Metabolic stability, cryopreserved hepatocytes, human; type: in vitro ADME; conditions: 1.0E-06 M, 2 h
mGluR5 = experiment: PDSP primary binding, mGluR5; conditions: 10 µM, n = 4
Protocol: as §1, §2

V1A = target: T10, V1A (Homo sapiens, UniProt P37288); experiment: PDSP primary binding, V1A; conditions: n = 4, read-out: Inhibition (primary binding competition efficacy), V1A
T10 construct: purchased NIMH Psychoactive Drug Screening Program (PDSP)
Protocol: as §1, §2

CB1 = target: T11, CB1 (Homo sapiens, UniProt P21554); experiment: PDSP primary binding, CB1; conditions: n = 4, read-out: Inhibition (primary binding competition efficacy), CB1
T11 construct: purchased NIMH Psychoactive Drug Screening Program (PDSP)
T11 sequence (P21554 whole entry): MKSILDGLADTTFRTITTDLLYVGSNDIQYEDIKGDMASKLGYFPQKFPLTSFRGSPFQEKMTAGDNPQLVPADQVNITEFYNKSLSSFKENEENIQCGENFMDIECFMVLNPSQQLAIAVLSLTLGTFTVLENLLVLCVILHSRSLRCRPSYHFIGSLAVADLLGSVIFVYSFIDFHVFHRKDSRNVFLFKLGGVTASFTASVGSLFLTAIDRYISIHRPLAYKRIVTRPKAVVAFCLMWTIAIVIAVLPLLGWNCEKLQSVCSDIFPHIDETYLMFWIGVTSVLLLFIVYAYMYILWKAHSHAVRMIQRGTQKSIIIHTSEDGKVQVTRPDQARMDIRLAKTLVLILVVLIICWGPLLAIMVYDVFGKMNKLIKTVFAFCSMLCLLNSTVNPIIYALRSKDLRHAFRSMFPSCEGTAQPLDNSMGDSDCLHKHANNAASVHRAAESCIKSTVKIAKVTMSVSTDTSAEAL
Protocol: as §1, §2

[9] = Bacterial cytotoxicity, strain TA98; type: cell-based; conditions: Salmonella typhimurium, bacterial tester strain TA98 without S9, read-out: Cytotoxicity (% of Control Values)
Text: as §3

[10] = 5 mg/kg p.o., day 29, about 50-60 min after pretreatment

T1 sequence (Q01959 whole entry): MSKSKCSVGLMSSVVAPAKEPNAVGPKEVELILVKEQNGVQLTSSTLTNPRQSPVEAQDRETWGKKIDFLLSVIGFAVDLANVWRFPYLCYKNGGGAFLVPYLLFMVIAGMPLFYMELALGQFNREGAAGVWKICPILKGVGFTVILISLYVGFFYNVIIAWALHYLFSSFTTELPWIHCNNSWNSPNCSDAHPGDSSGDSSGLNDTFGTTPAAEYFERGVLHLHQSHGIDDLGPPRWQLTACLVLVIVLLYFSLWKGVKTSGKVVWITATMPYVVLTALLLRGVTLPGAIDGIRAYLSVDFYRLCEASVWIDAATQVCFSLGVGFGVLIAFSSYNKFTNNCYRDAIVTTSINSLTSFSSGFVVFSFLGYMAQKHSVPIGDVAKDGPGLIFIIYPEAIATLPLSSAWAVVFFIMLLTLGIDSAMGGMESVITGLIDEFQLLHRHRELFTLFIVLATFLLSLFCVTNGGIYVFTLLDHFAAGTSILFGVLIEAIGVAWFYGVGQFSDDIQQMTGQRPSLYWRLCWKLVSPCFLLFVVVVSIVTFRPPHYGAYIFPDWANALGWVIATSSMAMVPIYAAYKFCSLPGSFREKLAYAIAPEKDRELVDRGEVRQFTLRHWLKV

Compound: OCCc1cc(-c2cncc(OC[C@@H]3CCN3)c2)on1 [LF-3-88, 2-[5-[5-(2(S)-azetidinylmethoxyl)-3-pyridyl]-3-isoxazolyl]ethanol]
- Ames test Result (strain TA1535; strain TA1535 + S9, 1.0E-04 M): Negative
- Ames test Result (strain TA1535; strain TA1535 + S9, 1.0E-05 M): Negative
- Ames test Result (strain TA1535; strain TA1535 + S9, 5.0E-05 M): Negative
- Ames test Result (strain TA1535; strain TA1535 + S9, 5.0E-06 M): Negative
- Ames test Result (strain TA1535; strain TA1535 – S9, 1.0E-04 M): Negative
- Ames test Result (strain TA1535; strain TA1535 – S9, 1.0E-05 M): Negative
- Ames test Result (strain TA1535; strain TA1535 – S9, 5.0E-05 M): Negative
- Ames test Result (strain TA1535; strain TA1535 – S9, 5.0E-06 M): Negative
- mutagenic potential (Ames), TA1535 (strain TA1535; with or without S9, 5, 10, 50, or 100 μmol/L): negative
- inhibition at 10 µM [1]: 18.6%
- inhibition at 10 µM (Oxytocin): 6.4%
- inhibition at 10 µM [2]: 3%
- absorption and blood-brain barrier crossing in vivo [3]: absorbed rapidly and crossed the blood–brain barrier
- viability at 0.0001 M ([4]; strain TA1535 – S9, 1.0E-04 M): 117%
- viability at 10 µM ([4]; strain TA1535 – S9, 1.0E-05 M): 97%
- viability at 1.25 µM ([4]; strain TA1535 – S9, 1.25E-06 M): 105%
- viability at 25 µM ([4]; strain TA1535 – S9, 2.5E-05 M): 104%
- viability at 2.5 µM ([4]; strain TA1535 – S9, 2.5E-06 M): 102%
- viability at 50 µM ([4]; strain TA1535 – S9, 5.0E-05 M): 109%
- viability at 5 µM ([4]; strain TA1535 – S9, 5.0E-06 M): 100%
- viability at 625 nM ([4]; strain TA1535 – S9, 6.25E-07 M): 99%
- inhibition at 10 µM [5]: 0.4%
- agonist activity at α7-nAChRs in oocytes (human α7-nAChR; 20 μmol/L): lack of agonist activity
- effect at α7-nAChRs in oocytes (human α7-nAChR; concentrations as high as 20 μmol/L): No effect
- antagonist activity at α7-nAChR in oocytes (human α7-nAChR; responses to 100 μmol/L ACh): weak if any antagonist activity
- inhibition at 10 µM (M4 muscarinic receptor): -3.6%
- CYP2C19 Inhibition (CYP2C19): 10%
- Ki [6]: 0.6 to 15.4 nM
- Plasma level [7, 10]: 430 ± 172 ng/mL
- brain level [7, 10]: 14 ± 4 ng/g
- Plasma level ([7]; 10 mg/kg p.o., day 29): 942 ± 400 ng/mL
- brain level ([7]; 10 mg/kg p.o., day 29): 31 ± 11 ng/g
- inhibition at 10 µM (β2 adrenergic receptor): 6.8%
- Inhibition (primary binding competition efficacy), σ 2 (σ 2 sigma receptor): 11.5%
- inhibition at 10 µM (D1 dopamine receptor): 5.8%
- Remaining (metabolic stability) [8]: 92%
- Inhibition (primary binding competition efficacy), mGluR5 (mGluR5): 6.6%
- inhibition at 10 µM (V1A): 24.7%
- inhibition at 10 µM (CB1): 5.1%
- viability at 0.0001 M ([9]; strain TA98 – S9, 1.0E-04 M): 108%
- viability at 10 µM ([9]; strain TA98 – S9, 1.0E-05 M): 92%
- viability at 1.25 µM ([9]; strain TA98 – S9, 1.25E-06 M): 95%
- viability at 25 µM ([9]; strain TA98 – S9, 2.5E-05 M): 94%
- viability at 2.5 µM ([9]; strain TA98 – S9, 2.5E-06 M): 98%
- viability at 50 µM ([9]; strain TA98 – S9, 5.0E-05 M): 102%
- viability at 5 µM ([9]; strain TA98 – S9, 5.0E-06 M): 96%
- viability at 625 nM ([9]; strain TA98 – S9, 6.25E-07 M): 97%
